# Source: US8614068B2, “Process for producing hepcidin” (Hellenic Pasteur Institute, priority 2007, dated 2013)
# “Also recorded” adds a separate entry of the source.
# Tests used:
# [1] = target: T1, ferroportin (FPN1) (Mus musculus, UniProt Q9JHI9); assay: Western blot of ferroportin expression in macrophages; format: cell-based, murine
# T1 construct: endogenous in cells; host or cells: RAW 264.7 murine macrophages
# T1 sequence (Q9JHI9 1-570): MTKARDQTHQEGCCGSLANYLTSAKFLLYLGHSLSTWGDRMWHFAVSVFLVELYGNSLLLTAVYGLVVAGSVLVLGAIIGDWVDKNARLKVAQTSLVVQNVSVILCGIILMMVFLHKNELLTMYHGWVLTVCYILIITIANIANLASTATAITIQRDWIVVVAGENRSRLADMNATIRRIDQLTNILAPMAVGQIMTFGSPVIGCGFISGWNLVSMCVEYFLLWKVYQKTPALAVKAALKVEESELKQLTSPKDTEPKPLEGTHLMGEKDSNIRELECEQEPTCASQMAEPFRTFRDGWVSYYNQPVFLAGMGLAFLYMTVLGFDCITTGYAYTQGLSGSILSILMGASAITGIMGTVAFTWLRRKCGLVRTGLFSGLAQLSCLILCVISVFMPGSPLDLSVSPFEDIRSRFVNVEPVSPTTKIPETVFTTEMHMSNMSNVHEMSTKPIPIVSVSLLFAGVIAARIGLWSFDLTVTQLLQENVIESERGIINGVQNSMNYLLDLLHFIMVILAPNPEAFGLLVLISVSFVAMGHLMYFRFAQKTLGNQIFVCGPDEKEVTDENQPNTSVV
# Description: (§1) A, RAW 264.7 macrophages were treated with 11 μM and 10 μM of synthetic hepcidin-25 (having the sequence of SEQ ID NO. 2) and Hep-25His (having the sequence of SEQ ID NO. 6) for 4 h at 37° C. or with PBS as negative control. Cell lysates were subjected to 8% SDS PAGE and Western Blot with antibodies against TfR1, Ferroportin and actin as loading control. B, The signal density of ferroportin, TfR1 and actin protein bands from two independent experiments were quantified by densitometry and their intensity relative to actin was calculated. […] Hep25-His, negative peptide and PBS was incubated with Raw 264.7 macrophages, followed by cross-linking with DSS. Cell lysates were incubated with Ni2-NTA and eluates were analyzed by Western blot using anti-FPN1 Ab. […] HEK293-Fpn cells were induced with ponasterone for 24 h and then treated with Hep25-His or synthetic hepcidin 25 (s. Hep25) for 3 h. Fluorescence was visualized with a Leica TCS confocal microscope.
# Western blotting—1×10^6 cells (RAW 264.7, THP-1 or J774) were plated in […] plates and after 12-20 h cells were treated with hepcidins in serum-free DMEM for 4 h, at 37° C. Afterwards, cells were re-suspended in lysis buffer (1% Triton, 25 mM Hepes pH 7.4, 150 mM NaCl, 10% Glycerol, 5 mM EDTA, 0.5 mM PMSF, protein inhibitors (Roche, Mannheim, Germany) and quantified by Bradford assay (Biorad, Hercules, Calif.). 30 μg of cell lysate was analyzed on 8% SDS-PAGE. Proteins were transferred to Hybond C nitrocellulose membrane (Amersham Biosciences, Piscataway, N.J.) and the membranes were incubated with the primary antibodies rabbit anti-ferroportin (Alpha Diagnostics, San Antonio, Tex.), mouse anti-TfR1 (Zymed, Invitrogen, Carlsbad, Calif.) and mouse anti-β actin (Santa Cruz Biotech, Santa Cruz, Calif.), in a dilution of 1:1000, overnight at 4° C. After washing, the membranes were incubated with anti-rabbit and anti-mouse secondary antibodies conjugated with HRP, in a dilution of 1:5000 (DakoCytomation, Carpinteria, Calif.), for 1 h at room temperature. Specific signal was detected with a chemiluminescence assay kit (ECL, Amersham Biosciences, Piscataway, N.J.). The bands were quantified by densitometry using the Quantity-One (Biorad, Hercules, Calif.) software. Data are shown as means±SD. Statistical analysis was performed by student t-Test.
# [2] = target: T1, ferroportin (FPN1); assay: Cross-linking and pull-down assay; format: binding, murine; settings: RAW 264.7, 10 nM, cross-linking with DSS, Ni2-NTA pull-down, anti-ferroportin Western blot
# Description: as §1, with “calculated. Data are expressed as mean of ratios of TfR1 or to actin levels ±S.D. for each experimental condition. *p<0.01.” for “calculated.”
# Disuccinimidyl suberate (DSS, Pierce, Rockford, Ill.) was added for 20 min at room temperature, followed by quenching with 20 mM TriseHCl pH 7.4 for 20 min. […] Bound proteins were eluted with 1 M imidazole and analyzed by Western blot using anti-FPN1 antibody as described above. […]
substance,measurement,setting,value
hepcidin-25His [Hep-25His],reduction of FPN1 in comparison to untreated cells,"[1]; RAW 264.7, 10 μM, 4 h at 37° C.",48±3%
same,decrease in ferroportin levels,[1]; RAW 264.7 macrophages,~50%
same,effect of higher concentrations on FPN1 and TfR1,"[1]; concentrations higher than 10 μM, data not shown",did not have a stronger effect
same,specific binding to FPN1,[2],binds specifically to FPN1; also recorded: binds specifically to FPNI
same,specific binding to FPN1,[2]; listed as recombinant peptide,can specifically bind to its receptor (ferroportin)
